Experimental data as given in patent publication US20050271676A1, “Inducing cellular immune responses to human immunodeficiency virus-1 using peptide and nucleic acid compositions” (Epimmune Inc., priority 1993, published 2005).
No end group written: not given here.

Key:
HLA-DRB1*1201 (DR5w12) = target: T1, HLA-DRB1*1201 (DR5w12) (Homo sapiens, UniProt P01903+P01911, A100R/A169T/D57E/D86V/F55L/H45Y/K41T/L162R/M171V/P40S/Q125H/Q178H/Q39Y/Q99D/R42G/S66L/T262R/V114A/V67L/W38E/Y59H/Y61H/Y89S); assay: purified HLA class II binding assay, DRB1*1201 (DR5w12)
T1 construct: endogenous in cells

HLA-DRB1*1501 (DR2w2β1) = target: T2, HLA-DRB1*1501 (DR2w2β1) (Homo sapiens, UniProt P01903+P01911); assay: purified HLA class II binding assay, DRB1*1501 (DR2w2β1)
T2 construct: expressed in transfected cells

HLA-DRB1*0405 (DR4w15) = HLA-DRB1*0405 (DR4w15) (Homo sapiens, UniProt P01903+P01911, A100R/A169T/D86S/F76Y/I96L/K127E/L162R/M171V/N62H/P40V/Q125Y/R42H/S133A/S149N/S66Y/V115G/V209L/W38E); assay: purified HLA class II binding assay, DRB1*0405 (DR4w15)
HLA-DRB1*0802 (DR8w2) = target: T3, HLA-DRB1*0802 (DR8w2) (Homo sapiens, UniProt P01903+P01911, A100R/A103L/A169T/F76Y/H45Y/I96F/K41T/L162R/M171V/P40S/Q125H/Q178H/Q39Y/Q99D/R218S/R42G/S66Y/V115G/W38E); assay: biochemical; type: binding
T3 construct: endogenous in cells

HLA-DRB1*0901 (DR9) = target: T4, HLA-DRB1*0901 (DR9) (Homo sapiens, UniProt P01903+P01911, A100R/A103E/D57H/D86V/F55Y/F60I/F76Y/I96F/K127E/L162R/M171V/P40D/Q125H/Q99R/R33Q/R42F/S133A/S66N/T210M/V115G/W38K/Y107V/Y59G/Y89S); assay: biochemical; type: binding
T4 construct: endogenous in cells

HLA-DRB1*0701 (DR7) = target: T5, HLA-DRB1*0701 (DR7) (Homo sapiens, UniProt P01903+P01911, A100R/A102G/A103Q/D57E/D86V/E43K/F76Y/K127E/L162R/M171V/P40G/Q125H/Q99D/R33Q/R42Y/R54Q/S133A/S66F/T210M/V115G/Y107V/Y59L/Y89S); assay: biochemical; type: binding
T5 construct: endogenous in cells; host or cells: Pitout

HLA-DRB1*1302 (DR6w19) = HLA-DRB1*1302 (DR6w19) (Homo sapiens, UniProt P01903+P01911, A100E/A169T/K41T/L162R/M171V/P40S/Q125H/Q178H/Q39Y/Q99D/R42S/S66N/T262R/V115G/W38E/Y61H); assay: purified HLA class II binding assay, DRB1*1302 (DR6w19)
HLA-DRB1*1101 (DR5w11) = target: T6, HLA-DRB1*1101 (DR5w11) (Homo sapiens, UniProt P01903+P01911, A100R/A169T/A87E/I96F/K41T/L162R/M171V/P40S/Q125H/Q178H/Q39Y/Q99D/R42S/S66Y/T262R/V115G/W38E); assay: biochemical; type: binding
T6 construct: endogenous in cells
T6 sequence (P01903 26-254, other chains not shown): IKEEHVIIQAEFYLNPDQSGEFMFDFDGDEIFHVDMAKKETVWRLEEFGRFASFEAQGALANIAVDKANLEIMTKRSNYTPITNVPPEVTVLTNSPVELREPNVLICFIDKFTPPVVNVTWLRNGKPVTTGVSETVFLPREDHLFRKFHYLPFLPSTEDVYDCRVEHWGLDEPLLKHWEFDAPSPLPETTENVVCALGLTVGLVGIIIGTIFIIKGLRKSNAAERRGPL

HLA-DRB1*0301 (DR3) = target: T7, HLA-DRB1*0301 (DR3) (Homo sapiens, UniProt P01903+P01911, A100K/A102G/A103R/A169T/F55Y/I96L/K41T/L162R/M171V/P40S/Q125H/Q178H/Q39Y/R42S/S66N/T106N/T262R/W38E/Y61H); assay: purified HLA class II binding assay, DRB1*0301 (DR3), pH 4.5
T7 construct: endogenous in cells; host or cells: MAT
T7 sequence (P01903 26-254 partner, other chains not shown): as the sequence (P01903 26-254, other chains not shown) above

HLA-DRB5*0101 (DR2w2β2) = target: T8, HLA-DRB5*0101 (DR2w2β2) (Homo sapiens, UniProt P01903+Q30154); assay: biochemical; type: binding
T8 construct: expressed in transfected cells

HLA-B*5401 = HLA-B*5401 (Homo sapiens, UniProt P01889, A329T/C349S/D138N/D201E/E176V/E187T/E204Q/E69G/I76V/K202T/L119W/R155S/R180L/S121T/S35A/S48A/V127L/V306I/V36M/Y140L); assay: biochemical
HLA-B*0702 = target: T9, HLA-B*0702 (Homo sapiens, UniProt P01889); assay: purified HLA class I binding assay, B*0702
T9 construct: endogenous in cells; host or cells: GM3107

HLA-B*3501 = HLA-B*3501 (Homo sapiens, UniProt P01889, A329T/A93T/A95T/C349S/D201E/D98Y/E176V/E187L/E204Q/E69T/I218V/K202T/L119I/Q94N/R155S/R180L/S121R/S35A/S48A/T118I/V127L/V306I/V36M/Y140S/Y91F); assay: purified HLA class I binding assay, B*3501
HLA-B51 (B*5101) = HLA-B51 (B*5101) (Homo sapiens, UniProt P01889, A329T/A93T/A95T/C349S/D138N/D201E/D98Y/E187L/E204Q/E69T/G107R/I218V/K202T/L105A/L119W/N104I/Q94N/R106L/R155S/R180L/S101N/S121T/S35A/S48A/V306I/V36M/Y195H/Y91F); assay: purified HLA class I binding assay, B51 (B*5101)
HLA-DRB1*0401 (DR4w4) = target: T10, HLA-DRB1*0401 (DR4w4) (Homo sapiens, UniProt P01903+P01911, A100K/A169T/F76Y/I96L/K127E/L162R/M171V/N62H/P40V/Q125Y/R42H/S133A/S149N/S66Y/V115G/V209L/W38E); assay: purified HLA class II binding assay, DRB1*0401 (DR4w4)
T10 construct: endogenous in cells; host or cells: Preiss
T10 sequence (P01903 26-254 partner, other chains not shown): as the sequence (P01903 26-254, other chains not shown) above

HLA-B*5301 = HLA-B*5301 (Homo sapiens, UniProt P01889, A329T/A93T/A95T/C349S/D201E/D98Y/E176V/E187L/E204Q/E69T/G107R/I218V/K202T/L105A/L119I/N104I/Q94N/R106L/R155S/R180L/S101N/S121R/S35A/S48A/T118I/V127L/V306I/V36M/Y140S/Y91F); assay: purified HLA class I binding assay, B*5301
[1] = HIV DR super motif peptides, unit not given

Compound | IC50 (HLA-DRB1*1201 (DR5w12)) [nM] | IC50 (HLA-DRB1*0405 (DR4w15)) [nM] | IC50 (HLA-DRB1*0802 (DR8w2)) [nM] | IC50 (HLA-DRB1*0901 (DR9)) [nM] | IC50 (HLA-DRB1*0701 (DR7)) [nM] | IC50 (HLA-DRB1*1302 (DR6w19)) [nM] | IC50 (HLA-DRB1*1101 (DR5w11)) [nM] | IC50 (HLA-DRB1*0301 (DR3)) [nM] | IC50 (HLA-B*5401) [nM] | IC50 (HLA-B*0702) [nM] | IC50 (HLA-B*3501) [nM] | IC50 (HLA-B51 (B*5101)) [nM] | IC50 (HLA-DRB1*0401 (DR4w4)) [nM] | IC50 (HLA-B*5301) [nM] | also measured
QKQITKIQNFRVYYR [Peptide 27.0377] | 124 | 49 | 75 | 577 | 25 | 25 | 53 | > 20000 | – | – | – | – | – | – | IC50 (HLA-DRB1*1501 (DR2w2β1)): 3.4 nM; IC50 (HLA-DRB5*0101 (DR2w2β2)): 80 nM
FPISPIETV [Peptide 1261.01] | – | – | – | – | – | – | – | – | 9.1 | 3440 | 1040 | – | – | – | –
CC(C)C[C@H](NC(=O)[C@H](CO)NC(=O)[C@H](CCCNC(=N)N)NC(=O)[C@H](CC(C)C)NC(=O)[C@H](CO)NC(=O)[C@H](C)NC(=O)[C@H](CC(C)C)NC(=O)[C@@H]1CCCN1C(=O)[C@@H](N)Cc1ccc(O)cc1)C(=O)N[C@@H](Cc1ccccc1)C(=O)O [15.0268] | – | – | – | – | – | – | – | – | 714 | – | – | 39.3 | – | – | –
CC[C@H](C)[C@H](NC(=O)[C@H](C)NC(=O)[C@@H]1CCCN1C(=O)[C@@H](N)CO)C(=O)N[C@@H](Cc1ccccc1)C(=O)N[C@@H](CCC(N)=O)C(=O)N[C@@H](CO)C(=O)N[C@@H](CO)C(=O)N[C@@H](CCSC)C(=O)N[C@H](C(=O)N[C@@H](CCCCN)C(=O)N[C@H](C(=O)N[C@@H](CC(C)C)C(=O)N[C@@H](CCC(=O)O)C(=O)N1CCC[C@H]1C(=O)O)[C@@H](C)CC)[C@@H](C)O [Peptide 27.0344] | > 20000 | 109 | 3270 | 33 | 68 | 13 | 741 | > 20000 | – | – | – | – | 3570 | – | –
CC(C)C[C@H](NC(=O)[C@H](CCCCN)NC(=O)[C@@H](NC(=O)[C@H](CC(C)C)NC(=O)[C@@H]1CCCN1C(=O)[C@@H]1CCCN1C(=O)[C@@H](NC(=O)[C@H](CC(N)=O)NC(=O)[C@@H](NC(=O)[C@H](Cc1ccccc1)NC(=O)[C@H](CCC(=O)O)NC(=O)[C@@H](N)Cc1c[nH]c2ccccc12)C(C)C)[C@@H](C)O)C(C)C)C(=O)N[C@@H](Cc1c[nH]c2ccccc12)C(=O)N[C@@H](Cc1ccc(O)cc1)C(=O)N[C@@H](CCC(N)=O)C(=O)O [Peptide 27.0354] | 1360 | 20 | 350 | 39 | 15 | 90 | – | – | – | – | – | – | 28 | – | IC50 (HLA-DRB5*0101 (DR2w2β2)): 2.1 nM
VPLQLPPL [29.0028] | – | – | – | – | – | – | – | – | 270 | – | 6000 | 0.8 | – | 46500 | –
HSNWRAMASDFNLPP [Peptide 27.0364] | > 20000 | 15 | 1960 | 872 | 472 | 4370 | 95 | > 20000 | – | – | – | – | 11 | – | IC50 (HLA-DRB1*1501 (DR2w2β1)): > 20000 nM
CPKVSFEPI [1296.02] | – | – | – | – | – | – | – | – | 100 | 100 | 5140 | – | – | 2450 | –
HPVHAGPIA [1292.13] | – | – | – | – | – | – | – | – | 4.3 | 50 | 11.6 | – | – | 4430 | –
IPYNPQSQGVV [1296.03] | – | – | – | – | – | – | – | – | 66.7 | – | 72000 | 120 | – | 46500 | –
CC[C@H](C)[C@H](NC(=O)CNC(=O)[C@H](CCCCN)NC(=O)[C@H](Cc1c[nH]cn1)NC(=O)[C@H](C)NC(=O)[C@@H]1CCCN1C(=O)[C@@H](NC(=O)[C@H](Cc1c[nH]c2ccccc12)NC(=O)[C@H](C)NC(=O)[C@H](CC(C)C)NC(=O)[C@H](Cc1ccc(O)cc1)NC(=O)[C@@H](NC(=O)[C@H](CCCCN)NC(=O)[C@@H](N)CCC(=O)O)C(C)C)C(C)C)C(=O)NCC(=O)O [Peptide 27.0361] | 6480 | 27 | 31 | 144 | 18 | 3500 | 37 | 3230 | – | – | – | – | 9.3 | – | IC50 (HLA-DRB1*1501 (DR2w2β1)): 21 nM; IC50 (HLA-DRB5*0101 (DR2w2β2)): 4.9 nM
QQHLLQLTVWGTKQL | – | – | – | – | – | – | – | – | – | – | – | – | – | – | DR5w12 binding (HLA-DRB1*1201 (DR5w12); [1]): 0.4900; DR2 wβ1 binding (HLA-DRB1*1501 (DR2w2β1); [1]): 0.7500; DR4w15 binding (HLA-DRB1*0405 (DR4w15); [1]): 0.2700; DR8w2 binding (HLA-DRB1*0802 (DR8w2)): 0.0210; DR9 binding (HLA-DRB1*0901 (DR9)): 0.5100; DR7 binding (HLA-DRB1*0701 (DR7)): 0.3900; DR6w19 binding (HLA-DRB1*1302 (DR6w19); [1]): 0.0180; DR4w4 binding (HLA-DRB1*0401 (DR4w4); [1]): 0.0330; DR5w11 binding (HLA-DRB1*1101 (DR5w11)): 0.0036; DR3 binding (HLA-DRB1*0301 (DR3); [1]): −0.0043; DR2w2β2 binding (HLA-DRB5*0101 (DR2w2β2)): 0.0580
CC(C)C[C@H](NC(=O)[C@@H]1CCCN1C(=O)[C@@H](NC(=O)[C@H](CCC(N)=O)NC(=O)[C@@H]1CCCN1C(=O)[C@H](CCCNC(=N)N)NC(=O)[C@@H](NC(=O)[C@@H]1CCCN1C(=O)[C@@H](N)Cc1ccccc1)C(C)C)C(C)C)C(=O)O [1146.01] | – | – | – | – | – | – | – | – | – | 15.7 | 43 | 11.6 | – | 482 | –
